# Data as given in patent US20040019082A1, “Reversible infertility in male mice following oral administration of alkylated imino sugars: a non-hormonal approach to male contraception” (United Therapeutics Corporation, priority 2002, published 2004).
# How the values were obtained:
# female C57BL/6 mice = test: Mating assay, fertility of treated female mice; type: in vivo, mouse; settings: 1200 mg/kg/day for five weeks, four-day mating with untreated males, n=5
# Procedure: Mating assays—To assess the fertility of male mice that were fed on a diet containing an iminosugar, a mating assay was used: typically six week old male C57BL/6 mice in groups of three were administered diet containing compound for five weeks (unless otherwise specified), after which each of them was caged with four untreated female C57BL/6 mice, and provided with standard pelleted chow. Females were at least 11 weeks old, and age-matched in each experiment. The male was removed from the females after 7 or 9 days, depending on the experiment; the females were monitored for vaginal mucous plugs, pregnancies, and, if any, litter sizes. To study any effect on female fertility six-week-old female C57BL/6 mice were treated with NB-DNJ for five weeks, after which each of them was caged with a non-treated age-matched male for four days.
# Following a four-day mating period with untreated males, 100% of treated (n=5) as well as of non-treated females (n=4) became pregnant; these mice had 6.2±2.7 and 7.8±1.0 pups per litter, respectively.
# [1] = Body, gonad and organ weights of treated mice; type: in vivo, mouse
# epididymal spermatozoa = test: Fluorescence microscopy of epididymal spermatozoa (nuclear morphology, acrosomal antigens); type: in vivo, mouse
# Procedure: Fluorescence microscopy—For immunofluorescence, freshly exised vasa deferentia were stripped and caudae epididymides were dissociated with forceps in M2 medium, and spermatozoa were allowed to disperse for 15 min. The resultant suspensions were used to prepare smears on glass slides. After drying in air for 1 hr, cells were fixed in methanol for 2 min., dried and stored at room temperature or 4° C. for one to five days. Before immunostaining smears were immersed in methanol for 5 min., dried, and wetted in PBS containing 0.5% BSA and 0.15 M glycine (PBG). Slides were stained with monoclonal antibodies, either Mab18.6 (1:20 in PBG (Moore, H. D., Smith, C. A., Hartman, T. D. & Bye, A. P. (1987) Gamete Res 17, 245-9)), anti-sp56 (1:67 in PBG, clone 7C5, QED Bioscience (Cheng, A., Le, T., Palacios, M., Bookbinder, L. H., Wassarman, P. M., Suzuki, F. & Bleil, J. D. (1994) J Cell Biol 125, 867-78), and goat anti-mouse immunoglobulins γ and light chains-specific fluorescein isothiocyanate-conjugate (Ortho) according to van Dongen et al. (van Dongen, J. M., Willemsen, R., Ginns, E. I., Sips, H. j., Tager, J. M., Barranger, J. A. & Reuser, A. J. (1985) Eur J Cell Biol 39, 179-189.) Following immunostaining, nuclei were stained for 2 min in 5 μg/ml Hoechst 33342 (Molecular Probes); slides were rinsed in distilled water, and mounted with Vectashield (Vector). Fluorescent probes were examined using an Olympus BX50 microscope equipped with a Princeton Instruments CCD camera. Images were aquired, false-coloured, and overlaid with Metamorph v3.5 software, and further processed with Adobe Photoshop.
# alpha-glucosidase 1 = target: T1, alpha-glucosidase 1 (Homo sapiens, UniProt Q13724); settings: involved in N-glycan synthesis; cited from earlier work
# T1 sequence (Q13724 1-837): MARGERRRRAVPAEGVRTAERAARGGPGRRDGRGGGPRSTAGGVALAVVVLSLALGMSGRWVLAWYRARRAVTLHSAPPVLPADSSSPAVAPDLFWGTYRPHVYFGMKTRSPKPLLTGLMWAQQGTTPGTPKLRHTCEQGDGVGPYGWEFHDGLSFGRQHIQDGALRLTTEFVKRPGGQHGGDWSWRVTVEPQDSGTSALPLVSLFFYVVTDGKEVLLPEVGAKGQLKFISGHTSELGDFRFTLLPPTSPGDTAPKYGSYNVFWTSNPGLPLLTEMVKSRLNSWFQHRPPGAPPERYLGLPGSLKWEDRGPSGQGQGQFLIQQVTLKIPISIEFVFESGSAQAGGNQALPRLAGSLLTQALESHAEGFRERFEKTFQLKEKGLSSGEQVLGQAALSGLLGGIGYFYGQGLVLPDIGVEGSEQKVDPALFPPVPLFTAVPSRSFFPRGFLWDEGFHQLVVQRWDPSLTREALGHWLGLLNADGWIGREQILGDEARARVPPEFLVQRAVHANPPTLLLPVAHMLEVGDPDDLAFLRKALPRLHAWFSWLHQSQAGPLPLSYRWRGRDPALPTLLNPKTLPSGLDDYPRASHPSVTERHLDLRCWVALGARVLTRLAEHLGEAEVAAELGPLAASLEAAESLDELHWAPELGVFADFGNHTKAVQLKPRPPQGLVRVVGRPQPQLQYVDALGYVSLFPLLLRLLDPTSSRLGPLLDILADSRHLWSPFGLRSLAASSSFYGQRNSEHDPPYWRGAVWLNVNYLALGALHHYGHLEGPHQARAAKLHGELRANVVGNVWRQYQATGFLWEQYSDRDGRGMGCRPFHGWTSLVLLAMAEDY
# [2] = tested on: mouse models with impaired GSL degradation; settings: in vivo; cited from earlier work
# [3] = highest dose (2400 mg/kg/day), n=10
smiles,measurement,setting,value
"CCCCN1C[C@H](O)[C@@H](O)[C@H](O)[C@H]1CO [NB-DNJ, N-butyldeoxynojirimycin]",females that became pregnant,female C57BL/6 mice,100%
same,pups per litter,female C57BL/6 mice,6.2±2.7
same,weights of testes and epididymal compartments,[1]; 1200 and 2400 mg/kg/day,decreased proportionally to body weight
same,combined cauda epididymis/vas deferens weight,[1]; [3],43±7 % of control
same,whole body weight,[1]; [3],60±5 % of control
same,body or gonad weights,"[1]; low dose, 15-150 mg/kg/day",did not affect
same,fraction of spermatozoa stained with Mab18.6 or anti-sp56 (acrosomal antigens),epididymal spermatozoa; 15 mg/kg/day,below 10%
same,nuclear shape of cauda epididymal sperm cells,epididymal spermatozoa; 150 mg/kg/day (FIGS. 4D-4F),various abnormally shaped nuclei
same,frequency of antibody staining (acrosomal antigens),epididymal spermatozoa; 1200 mg/kg/day compared with 15-150 mg/kg/day,more frequent
same,frequency of normal nuclear morphology,"epididymal spermatozoa; 1200 mg/kg/day compared with 50-150 mg/kg/day, p<0.01",significantly more often
same,incidence of (near)-normal acrosomal staining among Mab18.6-positive cells,"epididymal spermatozoa; 15 to 1200 mg/kg/day, average, n=3",31±10%
same,percentage of caudal spermatozoa with (near)-normal nuclei,epididymal spermatozoa; minimal dose to achieve complete infertility,below 6%
same,inhibition of alpha-glucosidase 1,alpha-glucosidase 1,potent inhibitor
same,therapeutic effect,[2],therapeutically effective
